± gives the expanded uncertainty stated by the source.
Assay: xn = mol fraction of the nth substance listed
Conditions: 101.3 kPa, Liquid, Vibrating tube method

COCCOCCOC [2,5,8-trioxanonane] + ClCCCl
mass density [kg/m3]
Conditions | 283.15 K | 288.15 K | 293.15 K | 298.15 K | 303.15 K | 308.15 K
x2 = 0 | – | 948.72 ± 0.23 | – | – | – | –
x2 = 0.0252 | 958.22 ± 0.25 | 953.25 ± 0.25 | 948.26 ± 0.25 | 943.26 ± 0.25 | 938.26 ± 0.25 | 933.23 ± 0.25
x2 = 0.0508 | 963.01 ± 0.24 | 958.01 ± 0.24 | 952.99 ± 0.24 | 947.97 ± 0.24 | 942.93 ± 0.24 | 937.88 ± 0.24
x2 = 0.0751 | 967.64 ± 0.24 | 962.62 ± 0.24 | 957.57 ± 0.24 | 952.52 ± 0.24 | 947.45 ± 0.24 | 942.36 ± 0.24
x2 = 0.1 | 972.47 ± 0.23 | 967.4 ± 0.23 | 962.33 ± 0.23 | 957.24 ± 0.23 | 952.14 ± 0.23 | 947.02 ± 0.23
x2 = 0.1502 | 982.62 ± 0.22 | 977.49 ± 0.22 | 972.35 ± 0.22 | 967.19 ± 0.22 | 962.02 ± 0.22 | 956.85 ± 0.22
x2 = 0.1999 | 993.12 ± 0.22 | 987.92 ± 0.22 | 982.7 ± 0.22 | 977.48 ± 0.22 | 972.24 ± 0.22 | 966.98 ± 0.22
x2 = 0.25 | 1004.25 ± 0.21 | 998.97 ± 0.21 | 993.69 ± 0.21 | 988.39 ± 0.21 | 983.08 ± 0.21 | 977.75 ± 0.21
x2 = 0.3002 | 1015.91 ± 0.21 | 1010.56 ± 0.21 | 1005.2 ± 0.21 | 999.83 ± 0.2 | 994.44 ± 0.2 | 989.03 ± 0.2
x2 = 0.3501 | 1028.01 ± 0.21 | 1022.59 ± 0.21 | 1017.14 ± 0.21 | 1011.69 ± 0.2 | 1006.21 ± 0.2 | 1000.72 ± 0.2
x2 = 0.4 | 1040.79 ± 0.22 | 1035.28 ± 0.21 | 1029.75 ± 0.21 | 1024.2 ± 0.21 | 1018.64 ± 0.2 | –
x2 = 0.45 | 1054.2 ± 0.22 | 1048.58 ± 0.22 | 1042.96 ± 0.21 | 1037.32 ± 0.21 | 1031.66 ± 0.21 | –
x2 = 0.5003 | 1068.49 ± 0.22 | 1062.78 ± 0.22 | 1057.05 ± 0.22 | 1051.31 ± 0.22 | 1045.56 ± 0.21 | –
x2 = 0.5499 | 1083.31 ± 0.23 | 1077.45 ± 0.23 | 1071.62 ± 0.22 | 1065.77 ± 0.22 | 1059.91 ± 0.22 | –
x2 = 0.5999 | 1098.98 ± 0.24 | 1093.07 ± 0.23 | 1087.13 ± 0.23 | 1081.17 ± 0.23 | 1075.19 ± 0.23 | –
x2 = 0.6501 | 1115.77 ± 0.25 | 1109.73 ± 0.24 | 1103.67 ± 0.24 | 1097.58 ± 0.24 | 1091.48 ± 0.24 | –
x2 = 0.7 | 1133.3 ± 0.26 | 1127.26 ± 0.25 | 1121.07 ± 0.25 | 1114.85 ± 0.25 | 1108.62 ± 0.24 | –
x2 = 0.75 | 1151.98 ± 0.27 | 1145.68 ± 0.27 | 1139.34 ± 0.26 | 1132.98 ± 0.26 | 1126.61 ± 0.26 | –
x2 = 0.8 | 1172.08 ± 0.28 | 1165.61 ± 0.28 | 1159.12 ± 0.28 | 1152.61 ± 0.27 | 1146.07 ± 0.27 | –
x2 = 0.8499 | 1193.31 ± 0.3 | 1186.69 ± 0.3 | 1180.04 ± 0.29 | 1173.37 ± 0.29 | 1166.67 ± 0.29 | –
x2 = 0.9 | 1216.25 ± 0.31 | 1209.44 ± 0.31 | 1202.6 ± 0.31 | 1195.74 ± 0.3 | 1188.86 ± 0.3 | –
x2 = 0.925 | 1228.27 ± 0.33 | 1221.36 ± 0.33 | 1214.42 ± 0.32 | 1207.47 ± 0.32 | 1200.48 ± 0.32 | –
x2 = 0.9494 | 1240.66 ± 0.34 | 1233.66 ± 0.34 | 1226.62 ± 0.33 | 1219.57 ± 0.33 | 1212.48 ± 0.33 | –
x2 = 0.975 | 1253.89 ± 0.34 | 1246.79 ± 0.34 | 1239.64 ± 0.34 | 1232.47 ± 0.33 | 1225.28 ± 0.33 | –

From the NIST ThermoML archive (doi:10.1021/je101361u)
